Measurements taken from patent US6262119A, “Methods of treating immunopathologies using polyunsaturated fatty acids” (priority 1996, dated 2001).
Like-named read-outs stand apart in the source and are kept apart here.

Assays:
TNFα = experiment: PHA-induced TNFα production (ELISA of mononuclear cell supernatants); format: cell-based; settings: Homo sapiens
Description: (§1) Fatty acid (66pmn) was then added in 50ul and pre-incubated with the cells for 30 min at 37° C. in 5% CO2. Mitogen (PHA, ConA, PWM, Staph. aureus) was then added in 100 μl and the cells incubated for 66 hours at 37° C. in 5% CO2 before the addition of tritiated thymidine (1 μCi/well). After a total of 72 h in culture the cells were harvested and proliferation (thymidine incorporation) and supernatant's assayed for the presence of cytokines.
(§2) Cytokine levels in culture supernatants were determined by specific ELISA using anti-cytokine antibodies. The following cytokine levels were determined TNFα, TNFβ, interferon-γ, IL-1β, IL-2.

psoriasis = settings: drugs which block the cyclo-oxygenase pathway; cited from earlier work
[1] = system: peripheral blood mononuclear cell proliferation; experiment: Mononuclear cell proliferation assay (thymidine incorporation); format: cell-based, human; settings: for inhibition at 20 µM: Homo sapiens, read-out: % INHIBITION OF PROLIFERATION; for % INHIBITION OF INDUCED PROLIFERATION AT 20 μM PUFA: mitogen-induced PBMC proliferation, one experiment in duplicate, representative of 4
Description: Mononuclear Cell Proliferation Assays
Mononuclear cells were separated from peripheral blood of normal human donors as described by Ferrante and Thong (1980, J. Immunol. Methods 36:109)). The mononuclear cells were resuspended in RPMI-1640 containing 20% human AB serum and placed into 96 well microtrays (50 μl per well, cell density 4×10^6 cells/ml). Fatty acid ([…]) was then added in 50ul and pre-incubated with the cells for 30 min at 37° C. in 5% CO2. Mitogen (PHA, ConA, PWM, Staph. aureus) was then added in 100 μl and the cells incubated for 66 hours at 37° C. in 5% CO2 before the addition of tritiated thymidine (1 μCi/well). After a total of 72 h in culture the cells were harvested and proliferation (thymidine incorporation) and supernatant's assayed for the presence of cytokines.

interferon γ = experiment: PHA-stimulated interferon γ production (ELISA of mononuclear cell supernatants); format: cell-based; settings: Homo sapiens, amino acid conjugated PUFA at 20 μM (Table 6), read-out: % inhibition of IFNγ production
Description: as §1, §2

DTH induced by SRBC = experiment: Delayed type hypersensitivity against sheep red blood cells; format: in vivo, Female balb/c mice
Description: Delayed Type Hypersensitivity Against Sheep Red Blood Cells. Female balb/c mice were administered a priming dose of 100 μl of a 10% haematocrit of sheep red blood cells (SRBC) subcutaneously. Six days later mice were administered 25 μl of a 10% haematocrit of SRBC intradermally into the right hind footpad at time T-0 hrs. The subsequent anti-inflammatory response was evaluated by measuring the thickness of both hind footpads. Standard anti-inflammatory compounds, vehicle and test substances were administered intraperitonieally one hour prior to the SRBC challenge. PUFA compounds were administered in peanut oil.

[2] = PHA-induced TNFα, PUFA at 20 μM (Table 4), read-out: % INHIBITION OF CYTOKINE PRODUCTION (TNFα)
[3] = PHA-stimulated, amino acid conjugated PUFA at 20 μM (Table 6), read-out: % inhibition of TNFα production

In the case of `CCCCC/C=C\C/C=C\C/C=C\CCCCCSCCC(=O)O` [γ-thia 22:3 (n-6), Z,Z,Z,Z-(6,9,12-Octadecatrienylthio)propionic acid], the inhibition at 20 µM (TNFα; [2]) is reported as 41%.

For `Cc1ccc(Cl)c(Nc2ccccc2C(=O)O)c1Cl` [meclotenamate], the exacerbations of psoriasis (psoriasis) is given as “induce exacerbations of psoriasis”.

For `CC/C=C\C/C=C\C/C=C\CCCCCCCC(=O)N[C@@H](CC(=O)O)C(=O)O` [α-linolenic acid-aspartic acid], the inhibition at 20 µM ([1]; induced by PHA, PUFA at 20 μM) was 7.3%, the inhibition at 20 µM (interferon γ) was 0% and the inhibition at 20 µM (TNFα; [3]) was 0%.

Molecule `CCCCC/C=C\C/C=C\C/C=C\CCCCC(=O)NCC(=O)O` [γ-linolenic acid-glycine] has an inhibition at 20 µM ([1]; induced by PHA, PUFA at 20 μM) of 29%, an inhibition at 20 µM (interferon γ) of 0% and an inhibition at 20 µM (TNFα; [3]) of 21.5%.

With `CC/C=C\C/C=C\C/C=C\CCCCCCCCOCC(=O)O` [β-oxa 21:3 (n-3), Z, Z, Z (9, 12, 15-Octadecatrienyloxy) acetic acid] the inhibition at 20 µM (TNFα; [2]) was 39%.

For `COc1ccc2c(c1)c(CC(=O)O)c(C)n2C(=O)c1ccc(Cl)cc1` [Indomethacin, reference compound], the exacerbations of psoriasis (psoriasis) is given as “induce exacerbations of psoriasis”, the “% paw volume relative to control” value (DTH induced by SRBC; 30 mg/kg, 3 hours post challenge) is given as 89.59% and the “% paw volume relative to control” value (DTH induced by SRBC; 30 mg/kg, 6 hours post challenge) is given as 81.40%. The “% paw volume relative to control” value (DTH induced by SRBC; 30 mg/kg, 24 hours post challenge) was 49.57%.

`CC/C=C\C/C=C\C/C=C\C/C=C\C/C=C\CCCC(=O)N[C@@H](CC(=O)O)C(=O)O` [eicosapentanoic acid-aspartic acid] gave an inhibition at 20 µM (interferon γ) of 66.1% and an inhibition at 20 µM (TNFα; [3]) of 17.1%.

`CCCCC/C=C\C/C=C\C/C=C\CCCCCSCC(=O)O` [β-thia 21:3 (n-6), Z,Z,Z,Z-(6,9, 12-Octadecatrienythio)acetica acid] gave an inhibition at 20 µM (TNFα; [2]) of 17%.

`CCCCC/C=C\C/C=C\C/C=C\C/C=C\CCCCOCC(=O)O` [β-oxa 23:4 (n-6), Z, Z, Z, Z (5,8, 11, 14-Eicosatetraenyloxy) acetic acid] gave an inhibition at 20 µM (TNFα; [2]) of 25%.

`CC/C=C\C/C=C\C/C=C\C/C=C\C/C=C\C/C=C\CCC(=O)N[C@@H](CC(=O)O)C(=O)O` [docosahexanoic acid-aspartic acid] gave an inhibition at 20 µM (interferon γ) of 8.3% and an inhibition at 20 µM (TNFα; [3]) of 17.4%.

With `CC/C=C\C/C=C\C/C=C\CCCCCCCCSCCC(=O)O` [γ-thia 22:3 (n-3), Z,Z,Z,Z-(9,12,15-Octadecatrienylthio)proponionic acid] the inhibition at 20 µM (TNFα; [2]) was 25%.

In the case of `CC/C=C\C/C=C\C/C=C\C/C=C\C/C=C\C/C=C\CCCSCC(=O)O` [β-thia 25:6 (n-3)], the “% INHIBITION OF INDUCED PROLIFERATION AT 20 μM PUFA” value [1] is reported as 97% and the inhibition at 20 µM (TNFα; [2]) is reported as 90%.

`CCCCC/C=C\C/C=C\C/C=C\C/C=C\CCCC(=O)N[C@@H](CC(=O)O)C(=O)O` [arachidonic acid-aspartic acid] gave an inhibition at 20 µM (interferon γ) of 68.4% and an inhibition at 20 µM (TNFα; [3]) of 38.3%.

In the case of `CCCCC1C(=O)N(c2ccccc2)N(c2ccccc2)C1=O` [phenylbutazone], the exacerbations of psoriasis (psoriasis) is given as “induce exacerbations of psoriasis”.

`CC/C=C\C/C=C\C/C=C\C/C=C\C/C=C\CCCC(=O)NCC(=O)O` [eicosapentanoic acid-glycine] showed an inhibition at 20 µM (interferon γ) of 68.2% and an inhibition at 20 µM (TNFα; [3]) of 11%.

Molecule `CCCCC/C=C\C/C=C\C/C=C\C/C=C\CCCCSCC(=O)O` [β-thia 23:4 (n-6), Z,Z,Z,Z-(5,8,11,14-Eicosatetraenylthio) acetic acid] has an inhibition at 20 µM (TNFα; [2]) of 35%.

`CC/C=C\C/C=C\C/C=C\CCCCCCCC(=O)NCC(=O)O` [α-linolenic acid-glycine] showed an inhibition at 20 µM ([1]; induced by PHA, PUFA at 20 μM) of 15.6%, an inhibition at 20 µM (interferon γ) of 14.5% and an inhibition at 20 µM (TNFα; [3]) of 29.3%.

With `CCCCCC(O)/C=C/C=C\C/C=C\CCCCCOCC(=O)O` (stereo not drawn) [16-OH-β-oxa 21:3 (n-6), Z, Z, E-(13-Hydroxy-6,9,1-octadecatienyloxy) acetic acid] the “% paw volume relative to control” value (DTH induced by SRBC; 10 mg/kg, 3 hours post challenge) was 95.03%, the “% paw volume relative to control” value (DTH induced by SRBC; 10 mg/kg, 6 hours post challenge) was 81.63% and the “% paw volume relative to control” value (DTH induced by SRBC; 10 mg/kg, 24 hours post challenge) was 86.91%. The “% paw volume relative to control” value (DTH induced by SRBC; 50 mg/kg, 3 hours post challenge) was 65.01%, the “% paw volume relative to control” value (DTH induced by SRBC; 50 mg/kg, 6 hours post challenge) was 48.95% and the “% paw volume relative to control” value (DTH induced by SRBC; 50 mg/kg, 24 hours post challenge) was 51.02%. For the same molecule, the “% paw volume relative to control” value (DTH induced by SRBC; 100 mg/kg, 3 hours post challenge) was 55.86%, the “% paw volume relative to control” value (DTH induced by SRBC; 100 mg/kg, 6 hours post challenge) was 40.94% and the “% paw volume relative to control” value (DTH induced by SRBC; 100 mg/kg, 24 hours post challenge) was 31.97%. For the same molecule, the “% INHIBITION OF INDUCED PROLIFERATION AT 20 μM PUFA” value [1] was 50% and the inhibition at 20 µM (TNFα; [2]) was 71%.

In the case of `CCCCC/C=C\C/C=C\C/C=C\CCCCC(=O)N[C@@H](CC(=O)O)C(=O)O` [γ-linolenic acid-aspartic acid], the inhibition at 20 µM ([1]; induced by PHA, PUFA at 20 μM) is reported as 15.4%, the inhibition at 20 µM (interferon γ) is reported as 0% and the inhibition at 20 µM (TNFα; [3]) is reported as 4.7%.

Work on `CCCCC/C=C\C/C=C\C/C=C\C/C=C\CCCC(=O)NCC(=O)O` [arachidonic acid-glycine] yielded an inhibition at 20 µM [1] of 8%, an inhibition at 20 µM (interferon γ) of 35.9% and an inhibition at 20 µM (TNFα; [3]) of 26.6%.

For `CCCCC/C=C\C/C=C\C/C=C\C/C=C\CCCCSCCC(=O)O` [γ-thia 24:4 (n-6), Z,Z,Z,Z-(5,8,11,14-Eicosatetraenylthio) propionic acid], the inhibition at 20 µM (TNFα; [2]) was 34%.

For `CC/C=C\C/C=C\C/C=C\CCCCCCCCSCC(=O)O` [β-thia 21:3 (n-3), Z,Z,Z,Z-(9,12,15-Octadecatrienylthio)acetic acid], the “% INHIBITION OF INDUCED PROLIFERATION AT 20 μM PUFA” value [1] was 28% and the inhibition at 20 µM (TNFα; [2]) was 17%.

`CC/C=C\C/C=C\C/C=C\C/C=C\C/C=C\C/C=C\CCC(=O)NCC(=O)O` [docosahexanoic acid-glycine] showed an inhibition at 20 µM (interferon γ) of 44% and an inhibition at 20 µM (TNFα; [3]) of 16.2%.

With `CCCCC/C=C\C/C=C\C/C=C\CCCCCOCC(=O)O` [β-oxa 21:3 (n-6), Z, Z, Z (6,9, 12-Octadecatrienyloxy) acetic acid] the “% INHIBITION OF INDUCED PROLIFERATION AT 20 μM PUFA” value [1] was 17% and the inhibition at 20 µM (TNFα; [2]) was 38%.

With `C[C@]12C=CC(=O)C=C1CC[C@@H]1[C@@H]2[C@@H](O)C[C@@]2(C)[C@H]1CC[C@]2(O)C(=O)CO` [Prednisolone, reference compound] the “% paw volume relative to control” value (DTH induced by SRBC; 20 mg/kg, 3 hours post challenge) was 58.35%, the “% paw volume relative to control” value (DTH induced by SRBC; 20 mg/kg, 6 hours post challenge) was 60.12% and the “% paw volume relative to control” value (DTH induced by SRBC; 20 mg/kg, 24 hours post challenge) was 100%.
